Measurements: PubChem BioAssay AID489026 (Sanford-Burnham Center for Chemical Genomics, 2010)
Activity calls are given as the source filed them. How the calls were made is not given here.

Test system: HEK-293T cytotoxicity, luminescence viability
Test: cytotoxicity in HEK-293T cells, dose response, cytotoxicity control, luminescence, T-cell screen hits (AID 489026)

SMILES | IC50
C[C@@H]1O[C@@H](O[C@H]2C[C@@H](O)[C@]3(CO)[C@@H]4C(CC[C@]3(O)C2)[C@@]2(O)CC[C@H](C3COC(=O)C3)[C@@]2(C)C[C@H]4O)[C@H](O)[C@H](O)[C@H]1O (some centres not stated) | > 80 µM (inactive)
C=C(C=O)C[C@@H]1C[C@H](O)C2OC3C[C@]4(C)OC5/C=C\CC6OC7C(CC=CCC6OC5CCCC4OC3CC2O1)OC1CC2OC3CC(=O)OC3C[C@@H](C)C[C@@]2(C)OC1C[C@@H]7C (some centres not stated) | 39.8 µM (inactive)
